According to patent publication US20260250318A1, “COMPOSITIONS AND METHODS FOR CROSSING THE BLOOD BRAIN BARRIER” (VOYAGER THERAPEUTICS, INC., priority 2022, published 2026):

system: brains, heart, liver, muscle, and DRG of the NHPs; test: Maturation of TTM-001 and TTM-002 capsids, NGS enrichment in NHP tissues; type: in vivo; settings: NHP DRG; NGS; relative to AAV9 control
In short: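 Variants carry mutations within and flanking the loop IV peptide insert: positions 450–466 were triplet-randomized, while positions 449–466 received low-frequency point mutations. The combined pool went into two NHPs, and each peptide was scored by NGS enrichment ratio against AAV9.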

Row | Sequence | Fold Enrichment relative to AAV9, DRG (NHP)
1 | KTINSPRSPHSKAQNQQT | 0.000 fold

same assay, conditions: NHP brain; NGS; relative to AAV9 control

Row | Sequence | Fold Enrichment relative to AAV9, Brain (NHP)
2 | KTINSPRSPHSKAQNQQT | 0.000 fold

same assay, conditions: NHP heart; NGS; relative to AAV9 control

Row | Sequence | Fold Enrichment relative to AAV9, Heart (NHP)
3 | KTINSPRSPHSKAQNQQT | 0.000 fold

same assay, conditions: NHP liver DNA; NGS; relative to AAV9 control

Row | Sequence | Fold Enrichment relative to AAV9, Liver DNA (NHP)
4 | KTINSPRSPHSKAQNQQT | 1.554 fold

same assay, conditions: NHP liver RNA; NGS; TTM-001 and TTM-002 matured AAV capsid variants; relative to AAV9 control

Row | Sequence | Fold Enrichment relative to AAV9, Liver RNA (NHP)
5 | KTINSPRSPHSKAQNQQT | 27.240 fold

same assay, conditions: NHP muscle; NGS; relative to AAV9 control

Row | Sequence | Fold Enrichment relative to AAV9, Muscle (NHP)
6 | KTINSPRSPHSKAQNQQT | 0.000 fold

system: brain; test: Maturation of TTM-001 capsid, NGS enrichment in brain of CD-1 Outbred mice; type: in vivo; settings: NGS fold-enrichment of TTM-001 matured AAV capsid variants in the brain of CD-1 Outbred mice; intravenous 1.0×10^12 VG/dose; 14 days in life; RNA; relative to non-matured TTM-001 control
In short: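 Pooled matured TTM-001 or TTM-002 capsid libraries (loop IV region randomized by triple-codon or low-frequency point mutagenesis) dosed IV via tail vein at 1.0×10^12 VG/dose to three female CD-1 mice. Brain RNA taken after 14 days; RT-PCR and NGS gave fold enrichment versus parent TTM-001 or TTM-002 control.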

Row | Sequence | Fold enrichment over TTM-001
7 | KTINGSISPHFVAQNQQT | 2.006 fold
8 | KTINGSKSPHFKAQNQQT | 3.285 fold
9 | KTINGSKSPHRKAQNQQT | 2.696 fold
10 | KTINGSKSPHRLAQNQQT | 3.073 fold
11 | KTINGSKSPHRTAQNQQT | 2.950 fold
12 | KTINGSLSPHCLAQNQQT | 2.577 fold
13 | KTINGSLSPHIYAQNQQT | 2.536 fold
14 | KTINGSLSPHLCAQNQQT | 2.775 fold
15 | KTINGSLSPHLFAQNQQT | 2.285 fold
16 | KTINGSLSPHRRAQNQQT | 2.717 fold
17 | KTINGSLSPHSCAQNQQT | 3.268 fold
18 | KTINGSLSPHSWAQNQQT | 2.885 fold
19 | KTINGSLSPHTWAQNQQT | 2.115 fold
20 | KTINGSLSPHYMAQNQQT | 2.015 fold
21 | KTINGSMSPHLYAQNQQT | 2.354 fold
22 | KTINGSMSPHRKAQNQQT | 2.251 fold
23 | KTINGSMSPHRRAQNQQT | 2.028 fold
24 | KTINGSNSPHRKAQNQQT | 2.218 fold
25 | KTINGSPSPHLFAQNQQT | 2.238 fold
26 | KTINGSPSPHRKAQNQQT | 2.430 fold
27 | KTINGSPSPHRRAQNQQT | 3.216 fold
28 | KTINGSPSPHYLAQNQQT | 2.391 fold
29 | KTINGSRSPHARAQNQQT (peptide inserted in AAV capsid) | 2.745 fold
30 | KTINGSRSPHCSAQNQQT (peptide inserted in AAV capsid) | 2.426 fold
31 | KTINGSRSPHFKAQNQQT (peptide inserted in AAV capsid) | 2.277 fold

Row | Sequence | Fold enrichment over TTM-001
32 | KTINGSRSPHIRAQNQQT (peptide inserted in AAV capsid) | 2.356 fold
33 | KTINGSRSPHLFAQNQQT (peptide inserted in AAV capsid) | 3.601 fold
34 | KTINGSRSPHLRAQNQQT (peptide inserted in AAV capsid) | 3.410 fold
35 | KTINGSRSPHRLAQNQQT (peptide inserted in AAV capsid) | 2.698 fold
36 | KTINGSRSPHRPAQNQQT (peptide inserted in AAV capsid) | 2.061 fold
37 | KTINGSRSPHRRAQNQQT (peptide inserted in AAV capsid) | 2.615 fold
38 | KTINGSRSPHRSAQNQQT (peptide inserted in AAV capsid) | 2.536 fold
39 | KTINGSRSPHSKAQNRQT (peptide inserted in AAV capsid) | 2.155 fold
40 | KTINGSRSPHSWAQNQQT (peptide inserted in AAV capsid) | 2.559 fold
41 | KTINGSRSPHTRAQNQQT (peptide inserted in AAV capsid) | 3.989 fold
42 | KTINGSRSPHVRAQNQQT (peptide inserted in AAV capsid) | 2.412 fold
43 | KTINGSRSPHYKAQNQQT (peptide inserted in AAV capsid) | 2.879 fold
44 | KTINGSSSPHCLAQNQQT (peptide inserted in AAV capsid) | 2.074 fold
45 | KTINGSSSPHCTAQNQQT (peptide inserted in AAV capsid) | 5.607 fold
46 | KTINGSSSPHLCAQNQQT (peptide inserted in AAV capsid) | 3.402 fold
47 | KTINGSSSPHLWAQNQQT (peptide inserted in AAV capsid) | 2.605 fold
48 | KTINGSSSPHSWAQNQQT (peptide inserted in AAV capsid) | 2.119 fold
49 | KTINGSSSPHWLAQNQQT (peptide inserted in AAV capsid) | 2.490 fold
50 | KTINGSSSPHWVAQNQQT (peptide inserted in AAV capsid) | 3.277 fold
51 | KTINGSTSPHLFAQNQQT (peptide inserted in AAV capsid) | 2.041 fold
52 | KTINGSTSPHRRAQNQQT (peptide inserted in AAV capsid) | 3.089 fold
53 | KTINGSTSPHWSAQNQQT (peptide inserted in AAV capsid) | 2.043 fold
54 | KTINGSTSPHYLAQNQQT (peptide inserted in AAV capsid) | 2.665 fold
55 | KTINGSVSPHFMAQNQQT (peptide inserted in AAV capsid) | 2.287 fold
56 | KTINGSVSPHLYAQNQQT (peptide inserted in AAV capsid) | 2.028 fold

Row | Sequence | Fold enrichment over TTM-001
57 | KTINGSVSPHRRAQNQQT (peptide inserted in AAV capsid) | 2.186 fold
58 | KTINGSVSPHSWAQNQQT (peptide inserted in AAV capsid) | 2.562 fold
59 | KTINGSVSPHYLAQNQQT (peptide inserted in AAV capsid) | 2.203 fold
60 | KTINGSVSPHYVAQNQQT (peptide inserted in AAV capsid) | 2.022 fold
61 | KTINGSWSPHLVAQNQQT (peptide inserted in AAV capsid) | 2.084 fold
62 | KTINGSWSPHMLAQNQQT (peptide inserted in AAV capsid) | 2.106 fold
63 | KTINGTLSPHRKAQNQQT | 2.307 fold
64 | KTINGTPSPHRKAQNQQT | 2.244 fold
65 | KTINGTRSPHAKAQNQQT | 2.071 fold
66 | KTINGTRSPHTKAQNQQT | 2.203 fold
67 | KTINGTSSPHCKAQNQQT | 2.017 fold
68 | KTINGVASPHRKAQNQQT | 2.261 fold
69 | KTINGVLSPHRKAQNQQT | 2.868 fold
70 | KTINGVLSPHWKAQNQQT | 2.199 fold
71 | KTINGVPSPHWKAQNQQT | 2.758 fold
72 | KTINGVTSPHWKAQNQQT | 2.387 fold
73 | KTINGVVSPHRKAQNQQT | 3.106 fold
74 | KTINGWRSPHSKAQNQQT | 2.160 fold
75 | KTINGYLSPHRKAQNQQT | 2.762 fold
76 | KTINGYRSPHSKAQNQQT | 2.140 fold
77 | KTINGYSSPHRKAQNQQT | 2.007 fold
78 | KTINLIRSPHSKAQNQQT | 2.920 fold
79 | KTINLIWSPHSKAQNQQT | 2.035 fold
80 | KTINLRFSPHSKAQNQQT | 2.611 fold
81 | KTINLSRSPHSKAQNQQT | 2.246 fold

Row | Sequence | Fold enrichment over TTM-001
82 | KTINMLRSPHSKAQNQQT | 2.000 fold
83 | KTINMRVSPHSKAQNQQT | 3.073 fold
84 | KTINMSRSPHSKAQNQQT | 2.622 fold
85 | KTINRHSSPHSKAQNQQT | 2.877 fold
86 | KTINRRLSPHSKAQNQQT | 2.678 fold
87 | KTINRVISPHSKAQNQQT | 2.169 fold
88 | KTINSARSPHSKAQNQQT | 2.292 fold
89 | KTINSPRSPHSKAQNQQT | 2.264 fold
90 | KTINSRFSPHSKAQNQQT | 2.032 fold
91 | KTINTIESPHSKAQNQQT | 2.331 fold
92 | KTINTRPSPHSKAQNQQT | 2.011 fold
93 | KTINTSRSPHSKAQNQQT | 2.520 fold
94 | KTIRLRGSPHSKAQNQQT | 2.408 fold
95 | KTIRSKGSPHSKAQNQQT | 2.559 fold
96 | KTLRRSGSPHSKAQNQQT | 2.117 fold
97 | KTRKSSGSPHSKAQNQQT | 2.065 fold
98 | KTRRSSGSPHSKAQNQQT | 2.438 fold
99 | KTRSRSGSPHSKAQNQQT | 3.669 fold
100 | KTSRCSGSPHSKAQNQQT | 2.345 fold
101 | KTTHCSGSPHSKAQNQQT | 2.672 fold
102 | KTWVRSGSPHSKAQNQQT | 2.186 fold
103 | KWSPGSGSPHSKAQNQQT (peptide inserted in AAV capsid) | 2.764 fold
104 | KYLLGSGSPHSKAQNQQT (peptide inserted in AAV capsid) | 2.253 fold
105 | KYLSGSGSPHSKAQNQQT (peptide inserted in AAV capsid) | 4.264 fold
106 | KYSVGSGSPHSKAQNQQT (peptide inserted in AAV capsid) | 3.365 fold
